{"source": "patent US11529343B2", "about": "“Compositions and methods for identifying and treating dystonia disorders” (DUKE UNIVERSITY, priority 2015, dated 2022)", "key": {"[1]": {"system": "delta-E Torsin1a localization", "test": "Delta-E Torsin1a mislocalization assay (% cells with EGFP puncta, high-content imaging)", "assay_type": "cell-based, human", "conditions": "for % pathology CC-v2 (dose response Curve Class): curve class per Inglese et al. 2006; for effect on delta-E Torsin1a localization (cells with puncta), in words: dose response", "method": "To limit variation in expression levels associated with random integration or transient expression, single copies of either WT or delta-E human TOR1A cDNAs with N-terminal EGFP fusions were inserted at the FRT site in Flp-In™ T-Rex™ 293 cells (Thermo Fisher Scientific #R780-07) via flippase recombinase-mediated cassette exchange according to the manufacturer's recommended protocols.\nThe cells were maintained at 37° C./5% CO2. All experiments were performed on cells with fewer than 5 passages.\nTorsin1a expression was also controlled by tetracycline induction to avoid selective pressure modifying the cellular phenotypes. […] The mutant phenotype was measured as the percentage of cells with one or more EGFP puncta using automated high-content imaging analysis (see infra).\nThe image analysis algorithm was developed using the Cellomics ArrayScan V CompartmentAnalysisV2 protocol. Hoechst's nuclear staining (Ch1: excitation 350 nm; emission 461 nm) was used for focusing and for cell identification by nuclear size, shape, and intensity. […] Detected cells were gated according to nuclear area, length-to-width ratio, and perimeter-to-area ratio. For the purpose of analysis, cell bodies were defined by a radius of 10 μm from the outer edge of the defined nucleus. Overlapping cells were automatically segmented according to the Cellomics ArrayScanV CompartmentAnalysisV2 object segmentation feature. EGFP fluorescence (Ch2: excitation 488 nm; emission 509 nm) was used for puncta detection. […] Torsin a puncta were identified using the spot detection feature of the Compartmental AnalysisV2 protocol. The percentage of cells containing one or more puncta was used as the primary metric in this assay.\n(§1) In order to test this model directly, the delta-E Torsin1a cell line was treated with compounds targeting the eIF2-alpha signaling pathway (FIG. 2). […] The following day, serial drug dilutions were prepared at 2× final concentration in assay media containing 10 μg/mL tetracycline and 30 μL of the drug/tetracycline mixture was added to the appropriate wells, while control wells received 30 μL of assay media alone or assay media+10 μg/mL tetracycline (final tetracycline concentration for all wells except negative controls: 5 μg/mL). Cells were then incubated at 37° C./5% CO^2 for 48 hours and fixed, permeabilized, Hoechst stained, and imaged as described above. The range of the Torsin1a localization effect was normalized to the percentage of cells with puncta in vehicle-treated delta-E cell line as the maximum and that in WT cell line as the minimum (FIG. 2, panels c-h). Cell count and EGFP-Torsin1a expression were normalized to their respective values in the vehicle-treated delta-E cell line as the maximum. All dose response data are the average of 4 independent experiments per dose. Untreated control data used for normalization are the average of 24 independent experiments."}, "[2]": {"system": "Flp-In T-REx 293 cells inducibly expressing delta-E Torsin1a", "test": "Cytotoxicity (cell count, cellular morphology) in the Torsin1a assay cell line", "assay_type": "cell-based, human", "conditions": "for Cytotox CC-v2 (dose response Curve Class): curve class per Inglese et al. 2006", "method": "as §1\nEfficacy is calculated as the magnitude of the pathology correction relative to the mutant Torsin1a pathology. For example an efficacy=−100% would be equivalent to the WT TorsinA phenotype, and 0% would be equivalent to the Mutant TorsinA phenotype. CCv2 refers to the dose response Curve Class annotation, and AC refers to Active Concentration."}, "[3]": {"system": "homozygous DYT1 knock-in mice", "test": "Perinatal survival of DYT1 knock-in mice after in utero exposure", "assay_type": "in vivo", "source_text": "Pairs of heterozygous delta-E Torsin1a knock-in breeders (courtesy of Dr. W. Dauer, University of Michigan) were randomly assigned to vehicle or salubrinal treatment groups. Starting 10 days after breeding cages were established, each female mouse was given a daily subcutaneous injection of vehicle or salubrinal at approximately 6 p.m. Cages were checked for new pups three times per day: morning (˜8 a.m.), early afternoon (˜2 p.m.), and during injections (˜6 p.m.). In order to minimize stress and the possibility of litter abandonment, mice with newborn pups were not given injections. Newborn pups were identified by marking limbs with a permanent laboratory marker, and tail samples were taken for genotyping at P0. At approximately P0.5, cages were checked again, and the status of each pup was recorded. If pups were first observed at the 8 am check, the 2 pm check was considered P0.5. If pups were first observed at the 2 pm or 6 pm checks, an additional check was performed at approximately midnight, and considered P0.5. Mortality was also tracked the following day, after which time identifying marks were predominately washed off or obscured by fur. Approximately 8 days after birth all remaining pups were sacrificed, and 10 days after birth daily injections resumed for the subsequent litter. All genotyping and, whenever possible, all pup identification and mortality checks were performed blinded to treatment group.\nSalubrinal (R&D Systems #2347) stocks were prepared at 26 mM (10× final concentration) in DMSO and stored in single-use aliquots at −80° C. Each day immediately before injections, a single salubrinal aliquot was thawed to room temperature and diluted 1:10 in injection vehicle (final vehicle composition: 1×PBS/10% DMSO/0.1% BSA). Empty injection vehicle was stored at room temperature in single-use aliquots. Mice were given a single subcutaneous injection of 3.3 mg/kg salubrinal (approximately 80 μL for a 30 g mouse) or an equivalent volume of empty injection vehicle. […]"}, "luciferase secretion": {"system": "luciferase secretion", "test": "C.Luc. Secretion Assay", "assay_type": "cell-based", "conditions": "for effect on secretory deficits, in words: orthogonal assays", "method": "We tested each shRNA for its ability to rescue a previously described defect in luciferase secretion. Chen, P. et al. (2010) Hum. Mol. Genet. 19, 3502-15; Cao, S. et al. (2010) Dis. Model Mech. 3, 386-96; Barrows, N. J., et al., (2010) J. Biomol. Screen. 15, 735-47.) DYT1 patient data were obtained from 4 independent patient-derived lines and WT data (black bar) from 3 normal healthy control lines. Each line was tested in 5 independent experiments that included 4 technical replicates each (with the exception of SCD data from 3 independent experiments).\n(Cao, S. et al. (2010) Dis. Model. Mech. 3, 386-96.) Subsequent testing of additional HIV protease inhibitors supported the activity of this class of compounds and generated favorable structure-activity relationship (SAR) data from which to design improved compounds (Tables 5 and 6). The results with a subset of compounds were also observed in a Luciferase secretion assay (Tables 5 and 6)."}, "[4]": {"conditions": "delta-E Torsin1a assay cell line"}}, "note": "Entries after “also recorded” stand apart in the source; their conditions may differ. Structures can show the parent of a compound that is named as a salt.", "data": [{"smiles": "COC(=O)N[C@H](C(=O)N[C@@H](Cc1ccccc1)[C@@H](O)CN(Cc1ccc(-c2ccccn2)cc1)NC(=O)[C@@H](NC(=O)OC)C(C)(C)C)C(C)(C)C", "note": "[Atazanavir]", "values": [{"measurement": "ΔE TorsinA Mislocalization Assay Localization EC50", "setting": "[1]; [4]", "result": "No Activity"}, {"measurement": "Cytotox CC-v2 (dose response Curve Class)", "setting": "[2]", "result": 4}]}, {"smiles": "CS(=O)(=O)O.Cc1c(O)cccc1C(=O)N[C@@H](CSc1ccccc1)[C@H](O)CN1C[C@H]2CCCC[C@H]2C[C@H]1C(=O)NC(C)(C)C.O", "note": "[Nelfinavir mesylae hydrate]", "values": [{"measurement": "% pathology CC-v2 (dose response Curve Class)", "setting": "[1]", "result": "−1.1"}, {"measurement": "Cytotox Efficacy", "setting": "[2]", "result": "−98.05", "unit": "%"}, {"measurement": "Cytotox Max Resp", "setting": "[2]", "result": "−95.64", "unit": "%"}, {"measurement": "Cytotox CC-v2 (dose response Curve Class)", "setting": "[2]", "result": "−1.1"}]}, {"smiles": "CCN(CC)CCC(=O)N1N=C(c2c(-c3ccccc3)c3cc(Br)ccc3[nH]c2=O)CC1c1ccc(Br)cc1", "note": "(stereo not shown) [CCT020312]", "values": [{"measurement": "effect on delta-E Torsin1a localization (cells with puncta), in words", "setting": "[1]; delta-E cell line", "result": "dose-dependent reduction in the number of cells with Torsin1a inclusions"}]}, {"smiles": "CC(C)CN(C[C@@H](O)[C@H](Cc1ccccc1)NC(=O)O[C@H]1CCOC1)S(=O)(=O)c1ccc(N)cc1", "note": "[Amprenavir]", "values": [{"measurement": "ΔE TorsinA Mislocalization Assay Localization EC50", "setting": "[1]; [4]", "result": "No Activity"}, {"measurement": "Cytotox CC-v2 (dose response Curve Class)", "setting": "[2]", "result": 4}]}, {"smiles": "O=C(/C=C/c1ccccc1)NC(NC(=S)Nc1cccc2cccnc12)C(Cl)(Cl)Cl", "note": "(stereo not shown) [Salubrinal]", "values": [{"measurement": "steady-state EGFP-Torsin1a levels, in words", "setting": "[1]; delta-E cell line", "result": "without modifying steady-state EGFP-Torsin1a levels"}, {"measurement": "effect on delta-E Torsin1a localization (cells with puncta), in words", "setting": "[1]; delta-E cell line", "result": "robust dose-dependent normalization"}, {"measurement": "perinatal survival / mortality of delta-E/delta-E pups", "setting": "[3]; 3.3 mg/kg subcutaneous daily to pregnant dams, about embryonic day 10 through delivery, versus vehicle", "result": "dramatically reduced the mortality; also recorded: improves perinatal survival"}, {"measurement": "mortality of wild-type and heterozygous pups", "setting": "[3]; 3.3 mg/kg subcutaneous daily to pregnant dams, versus vehicle", "result": "no mortality differences"}, {"measurement": "homozygous delta-E Torsin1a pups surviving through the second postnatal day", "setting": "[3]; no postnatal treatment, no vehicle-treated homozygous pup survived the first postnatal day", "result": "two"}]}, {"smiles": "CC(C)CN(C[C@@H](O)[C@H](Cc1ccccc1)NC(=O)O[C@H]1CO[C@H]2OCC[C@H]21)S(=O)(=O)c1ccc(N)cc1", "note": "[Darunavir]", "values": [{"measurement": "ΔE TorsinA Mislocalization Assay Localization EC50", "setting": "[1]; [4]", "result": "No Activity"}, {"measurement": "C.Luc. Secretion Assay Secretion EC50", "setting": "luciferase secretion", "result": "No Activity"}]}, {"smiles": "CC(C)c1nc(CN(C)C(=O)N[C@H](C(=O)N[C@@H](Cc2ccccc2)C[C@H](O)[C@H](Cc2ccccc2)NC(=O)OCc2cncs2)C(C)C)cs1", "note": "[Ritonavir]", "values": [{"measurement": "effect on delta-E Torsin1a localization (cells with puncta), in words", "setting": "[1]; delta-E cell line", "result": "corrected TorsinA localization in a dose-dependent fashion; also recorded: restored"}, {"measurement": "Cytotox CC-v2 (dose response Curve Class)", "setting": "[2]", "result": 4}, {"measurement": "effect on secretory deficits, in words", "setting": "luciferase secretion", "result": "corrected secretory deficits"}]}, {"smiles": "CC(C)(C)NC(=O)[C@@H]1CN(Cc2cccnc2)CCN1C[C@@H](O)C[C@@H](Cc1ccccc1)C(=O)N[C@H]1c2ccccc2C[C@H]1O", "note": "[Indinavir sulfate]", "values": [{"measurement": "Cytotox Efficacy", "setting": "[2]", "result": "−80.64", "unit": "%"}, {"measurement": "Cytotox Max Resp", "setting": "[2]", "result": "−67.80", "unit": "%"}, {"measurement": "Cytotox CC-v2 (dose response Curve Class)", "setting": "[2]", "result": "−3"}]}, {"smiles": "CCCC(CCC)C(=O)O", "note": "[valproic acid]", "values": [{"measurement": "effect on delta-E Torsin1a localization (cells with puncta), in words", "setting": "[1]; delta-E cell line", "result": "no effect"}]}, {"smiles": "CC(C)(C)NC(=O)[C@@H]1C[C@@H]2CCCC[C@@H]2CN1C[C@@H](O)[C@H](Cc1ccccc1)NC(=O)[C@H](CC(N)=O)NC(=O)c1ccc2ccccc2n1", "note": "[Saquinavir]", "values": [{"measurement": "effect on delta-E Torsin1a localization (cells with puncta), in words", "setting": "[1]; delta-E cell line", "result": "corrected TorsinA localization in a dose-dependent fashion"}, {"measurement": "effect on secretory deficits, in words", "setting": "luciferase secretion", "result": "corrected secretory deficits"}]}, {"smiles": "N=C(N)N/N=C/c1c(Cl)cccc1Cl", "note": "[guanabenz]", "values": [{"measurement": "effect on delta-E Torsin1a localization (cells with puncta), in words", "setting": "[1]; delta-E cell line", "result": "no effect"}]}, {"smiles": "Cc1c(O)cccc1C(=O)N[C@@H](CSc1ccccc1)[C@H](O)CN1C[C@H]2CCCC[C@H]2C[C@H]1C(=O)NC(C)(C)C", "note": "[Viracept]", "values": [{"measurement": "Cytotox Efficacy", "setting": "[2]", "result": "−106.32", "unit": "%"}, {"measurement": "Cytotox Max Resp", "setting": "[2]", "result": "−97.72", "unit": "%"}, {"measurement": "Cytotox CC-v2 (dose response Curve Class)", "setting": "[2]", "result": "−1.1"}]}, {"smiles": "Cc1c(O)cccc1C(=O)N[C@@H](CSc1ccccc1)[C@H](O)CN1C[C@H]2CCCC[C@H]2C[C@H]1C(=O)NC(C)(C)C", "note": "[Nelfinavir]", "values": [{"measurement": "Emax", "setting": "[1]; Homo sapiens, delta-E Torsin1a assay cell line, read-out: ΔE TorsinA Mislocalization Assay Localization Max Efficacy", "result": 80, "unit": "%"}, {"measurement": "effect on delta-E Torsin1a localization (cells with puncta), in words", "setting": "[1]; delta-E cell line", "result": "corrected TorsinA localization in a dose-dependent fashion"}]}, {"smiles": "CC(C)(C)NC(=O)[C@@H]1CN(Cc2cccnc2)CCN1C[C@@H](O)C[C@@H](Cc1ccccc1)C(=O)N[C@H]1c2ccccc2C[C@H]1O", "note": "[Indinavir]", "values": [{"measurement": "effect on delta-E Torsin1a localization (cells with puncta), in words", "setting": "[1]; delta-E cell line", "result": "corrected TorsinA localization in a dose-dependent fashion"}]}, {"smiles": "C[C@H](NC(=O)Cc1cc(F)cc(F)c1)C(=O)N[C@H](C(=O)OC(C)(C)C)c1ccccc1", "note": "[DAPT]", "values": [{"measurement": "effect on delta-E Torsin1a localization (cells with puncta), in words", "setting": "[1]; delta-E cell line", "result": "no effect"}]}, {"smiles": "Cc1cccc(C)c1OCC(=O)NC(CCC(Cc1ccccc1)NC(=O)C(C(C)C)N1CCCNC1=O)Cc1ccccc1", "note": "(stereo not shown) [Des-hydroxy Lopinavir]", "values": [{"measurement": "% pathology CC-v2 (dose response Curve Class)", "setting": "[1]", "result": "−3"}, {"measurement": "Cytotox Efficacy", "setting": "[2]", "result": "−77.66", "unit": "%"}, {"measurement": "Cytotox Max Resp", "setting": "[2]", "result": "−66.67", "unit": "%"}, {"measurement": "Cytotox CC-v2 (dose response Curve Class)", "setting": "[2]", "result": "−2.2"}]}]}
